Test results as given in PubChem BioAssay (NCI).
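Each compound was tested at five concentrations against cells in 96-well plates for 48 hours. At the GI50, growth is halved. TGI is the concentration that stops growth completely.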

What was measured:
Test in all cases: growth of human tumour cells (NCI), 48 h
UO-31 renal = system: UO-31 renal
SF-295 CNS = system: SF-295 CNS
A498 renal = system: A498 renal
EKVX NSCLC = system: EKVX NSCLC
HT29 colon = system: HT29 colon
K-562 leukemia = system: K-562 leukemia
MALME-3M melanoma = system: MALME-3M melanoma
SF-539 CNS = system: SF-539 CNS
786-0 renal = system: 786-0 renal
LOX IMVI melanoma = system: LOX IMVI melanoma

For `O=C(N/N=C/c1cc(Br)cc(Br)c1[O-])c1ccccc1O.O=C(N/N=C/c1cc(Br)cc(Br)c1[O-])c1ccccc1O.[Mn+2]`, the TGI (UO-31 renal) was 24.2 µM, the TGI (SF-295 CNS) was 13.7 µM and the GI50 (A498 renal) was 12.8 µM. The TGI (A498 renal) was 50.1 µM, the TGI (EKVX NSCLC) was 34.6 µM and the TGI (HT29 colon) was 22.3 µM. It also gave a GI50 (K-562 leukemia) of 1.66 µM, a TGI (K-562 leukemia) of 12.1 µM and a TGI (MALME-3M melanoma) of 16.6 µM. For the same compound, the TGI (SF-539 CNS) was 5.56 µM, the GI50 (786-0 renal) was 0.887 µM and the TGI (786-0 renal) was 15.9 µM.
`CCOC(=O)[C@@H](C)C[C@H](Cc1ccccc1)NC(=O)c1csc([C@@H](C[C@H](C(C)C)N(C)C(=O)[C@H](CCC(C)C)NC(=O)[C@H]2CCCCN2C)OC(C)=O)n1` was tested, and the GI50 (UO-31 renal) was 0.0227 µM, the TGI (UO-31 renal) was 5.14 µM and the GI50 (SF-295 CNS) was 0.00575 µM. It also gave a TGI (SF-295 CNS) of 3.68 µM, a GI50 (LOX IMVI melanoma) of 0.0133 µM and a TGI (LOX IMVI melanoma) of 4.85 µM. It also gave a GI50 (A498 renal) of 0.00419 µM, a TGI (A498 renal) of 0.0226 µM and a GI50 (EKVX NSCLC) of 0.0153 µM. For the same compound, the TGI (EKVX NSCLC) was over 33.3 µM, the GI50 (HT29 colon) was under 0.00333 µM and the TGI (HT29 colon) was 0.0811 µM. It also gave a GI50 (K-562 leukemia) of under 0.00333 µM, a TGI (K-562 leukemia) of 4.45 µM and a GI50 (SF-539 CNS) of 0.00838 µM. For the same compound, the TGI (SF-539 CNS) was 0.0289 µM, the GI50 (786-0 renal) was 0.0135 µM and the TGI (786-0 renal) was 5.53 µM.
`O=C(O)c1ccc(NS(=O)(=O)c2cccc3cccnc23)cc1` showed a GI50 (UO-31 renal) of over 100 µM, a TGI (UO-31 renal) of over 100 µM and a GI50 (SF-295 CNS) of over 100 µM. It also gave a TGI (SF-295 CNS) of over 100 µM, a GI50 (LOX IMVI melanoma) of over 100 µM and a TGI (LOX IMVI melanoma) of over 100 µM. The GI50 (A498 renal) was over 100 µM, the TGI (A498 renal) was over 100 µM and the GI50 (HT29 colon) was over 100 µM. For the same compound, the TGI (HT29 colon) was over 100 µM, the GI50 (K-562 leukemia) was over 100 µM and the TGI (K-562 leukemia) was over 100 µM. It also gave a GI50 (MALME-3M melanoma) of over 100 µM, a TGI (MALME-3M melanoma) of over 100 µM and a GI50 (SF-539 CNS) of over 100 µM. For the same compound, the TGI (SF-539 CNS) was over 100 µM, the GI50 (786-0 renal) was over 100 µM and the TGI (786-0 renal) was over 100 µM.
`C#CC[C@H](c1nc2cc(Cl)ccc2c(=O)n1Nc1ccccc1)N(CCCN)C(=O)c1cccc(Cl)c1F` gave a GI50 (UO-31 renal) of 2.94 µM, a TGI (UO-31 renal) of 8.07 µM and a GI50 (SF-295 CNS) of 0.353 µM. The TGI (SF-295 CNS) was 1.48 µM, the GI50 (LOX IMVI melanoma) was 0.325 µM and the TGI (LOX IMVI melanoma) was 1.84 µM. For the same compound, the GI50 (A498 renal) was 0.626 µM, the TGI (A498 renal) was 3.43 µM and the GI50 (HT29 colon) was 0.337 µM. It also gave a TGI (HT29 colon) of 1.32 µM, a GI50 (K-562 leukemia) of 0.0968 µM and a TGI (K-562 leukemia) of 1.85 µM. The GI50 (MALME-3M melanoma) was 1.05 µM, the TGI (MALME-3M melanoma) was 2.45 µM and the GI50 (SF-539 CNS) was 0.183 µM. For the same compound, the TGI (SF-539 CNS) was 0.65 µM, the GI50 (786-0 renal) was 1.15 µM and the TGI (786-0 renal) was 2.63 µM.
For `Cc1ccc(NC2=C(Sc3ccc(Cl)cc3)C(=O)N(Cc3ccccc3)C2=O)cc1Cl`, the GI50 (UO-31 renal) was 8.73 µM, the TGI (UO-31 renal) was 22.1 µM and the GI50 (SF-295 CNS) was 5.86 µM. The TGI (SF-295 CNS) was over 100 µM, the GI50 (LOX IMVI melanoma) was 4.84 µM and the TGI (LOX IMVI melanoma) was 17.1 µM. It also gave a GI50 (A498 renal) of 4.8 µM, a TGI (A498 renal) of 17.1 µM and a GI50 (EKVX NSCLC) of 26.7 µM. The TGI (EKVX NSCLC) was over 100 µM, the GI50 (HT29 colon) was 10.4 µM and the TGI (HT29 colon) was over 100 µM. For the same compound, the GI50 (K-562 leukemia) was 3.66 µM, the TGI (K-562 leukemia) was 19.7 µM and the GI50 (SF-539 CNS) was 3.45 µM. The TGI (SF-539 CNS) was 16.9 µM, the GI50 (786-0 renal) was 10.3 µM and the TGI (786-0 renal) was 22.4 µM.
`Cl.Fc1c[c-]c(-c2ccccn2)c(F)c1.[Pt].c1ccc([PH+](CC[PH+](c2ccccc2)c2ccccc2)c2ccccc2)cc1` was tested, and the GI50 (UO-31 renal) was 0.254 µM, the TGI (UO-31 renal) was 0.93 µM and the GI50 (SF-295 CNS) was 0.0474 µM. It also gave a TGI (SF-295 CNS) of 0.328 µM, a GI50 (A498 renal) of 0.103 µM and a TGI (A498 renal) of 0.478 µM. It also gave a GI50 (K-562 leukemia) of 0.0369 µM, a GI50 (MALME-3M melanoma) of 0.061 µM and a TGI (MALME-3M melanoma) of 0.409 µM. It also gave a GI50 (SF-539 CNS) of 0.164 µM, a TGI (SF-539 CNS) of 0.976 µM and a GI50 (786-0 renal) of 0.231 µM. The TGI (786-0 renal) was 1.06 µM.
`COc1ccc(C(=O)/C=C/c2cc(C(=O)c3cc(OC)c(OC)c(OC)c3)ccc2OC)cc1` showed a GI50 (SF-295 CNS) of 6.27 µM, a TGI (SF-295 CNS) of over 100 µM and a GI50 (A498 renal) of 7.33 µM. It also gave a TGI (A498 renal) of over 100 µM, a GI50 (K-562 leukemia) of 2.86 µM and a TGI (K-562 leukemia) of over 100 µM. The GI50 (786-0 renal) was 7.71 µM and the TGI (786-0 renal) was over 100 µM.
`Cc1nc(NC(=S)Nc2ccc(F)cc2)sc1C(=O)NNC(=S)Nc1ccc(F)cc1` showed a GI50 (UO-31 renal) of 5.28 µM, a TGI (UO-31 renal) of 21 µM and a GI50 (SF-295 CNS) of 3.96 µM. It also gave a TGI (SF-295 CNS) of 21.1 µM, a GI50 (A498 renal) of 2.4 µM and a TGI (A498 renal) of 15.4 µM. It also gave a GI50 (EKVX NSCLC) of 4.61 µM, a TGI (EKVX NSCLC) of over 100 µM and a GI50 (HT29 colon) of 8.58 µM. The TGI (HT29 colon) was 25.3 µM, the GI50 (K-562 leukemia) was 3.91 µM and the TGI (K-562 leukemia) was over 100 µM. It also gave a GI50 (MALME-3M melanoma) of 13.1 µM, a TGI (MALME-3M melanoma) of 35.5 µM and a GI50 (SF-539 CNS) of 13 µM. The TGI (SF-539 CNS) was 26.2 µM, the GI50 (786-0 renal) was 21.9 µM and the TGI (786-0 renal) was 89.1 µM.
`COC1CC(OS(=O)(=O)c2ccc(C)cc2)C(OS(=O)(=O)c2ccc(C)cc2)C(COS(=O)(=O)c2ccc(C)cc2)O1` (stereo not given) was tested, and the TGI (UO-31 renal) was 12.1 µM, the TGI (SF-295 CNS) was 4.38 µM and the TGI (EKVX NSCLC) was 24.4 µM. It also gave a TGI (HT29 colon) of 15.1 µM, a TGI (K-562 leukemia) of over 100 µM and a TGI (MALME-3M melanoma) of 8.57 µM. The TGI (SF-539 CNS) was 6.65 µM and the TGI (786-0 renal) was 4.06 µM.
`CCOC(=O)NC(=O)c1cn(CCCOC(=O)CCCCCCCCC(=O)OCCCn2cc(C(=O)NC(=O)OCC)c(=O)[nH]c2=O)c(=O)[nH]c1=O` gave a TGI (SF-295 CNS) of 50.2 µM, a TGI (LOX IMVI melanoma) of over 100 µM and a TGI (A498 renal) of 67.5 µM. It also gave a TGI (EKVX NSCLC) of over 100 µM, a TGI (HT29 colon) of over 100 µM and a TGI (K-562 leukemia) of 49.8 µM. The TGI (SF-539 CNS) was 82.1 µM and the TGI (786-0 renal) was 84.5 µM.
In the case of `NC(=O)C1=C(c2ccccc2)c2ccccc2C1=O`, the TGI (UO-31 renal) is reported as 33.3 µM, the TGI (SF-295 CNS) is reported as 41.9 µM and the TGI (LOX IMVI melanoma) is reported as 21.4 µM. The TGI (A498 renal) was 60.8 µM, the TGI (EKVX NSCLC) was 33.3 µM and the TGI (HT29 colon) was 34.2 µM. The TGI (K-562 leukemia) was over 100 µM and the TGI (786-0 renal) was 30.5 µM.
`COc1ccc(C2=C(c3cn(C)c4ccccc34)C(=O)NC2=O)cc1OC` was tested, and the GI50 (UO-31 renal) was 4.83 µM, the TGI (UO-31 renal) was over 25 µM and the GI50 (SF-295 CNS) was 10.4 µM. It also gave a TGI (SF-295 CNS) of over 25 µM, a GI50 (LOX IMVI melanoma) of 8.12 µM and a TGI (LOX IMVI melanoma) of over 25 µM. For the same compound, the GI50 (A498 renal) was 3.43 µM, the TGI (A498 renal) was 8.95 µM and the GI50 (HT29 colon) was 6.78 µM. The TGI (HT29 colon) was over 25 µM, the GI50 (K-562 leukemia) was 4.92 µM and the TGI (K-562 leukemia) was over 25 µM. The GI50 (MALME-3M melanoma) was over 25 µM, the TGI (MALME-3M melanoma) was over 25 µM and the GI50 (SF-539 CNS) was 5.51 µM. For the same compound, the TGI (SF-539 CNS) was over 18.1 µM, the GI50 (786-0 renal) was 8.28 µM and the TGI (786-0 renal) was over 25 µM.
